Patent publication US9539256B2 (THE BOARD OF REGENTS OF THE UNIVERSITY OF TEXAS SYSTEM, priority 2012, dated 2017)
Entries after “also recorded” stand apart in the source; their conditions may differ.

Key:
type II PKA holoenzyme = experiment: PKA counter screening, type II holoenzyme; type: biochemical; conditions: 25 μM compound
Description: Kinase activity of the type I and II PKA holoenzyme are measured spectrophotometrically in a 96-well plate with a coupled enzyme assay as described previously (Cook et al. (1982) Biochemistry 21: 5794-5799). In this assay, the formation of ADP is coupled to the oxidation of NADH by the pyruvate kinase/lactate dehydrogenase reactions so the reaction rate can be determined by following the oxidation of NADH, reflected by a decrease in absorbance at 340 nm. […] Reactions are pre-equilibrated at room temperature and initiated by adding the Kemptide substrate (final concentration 0.26 mM).

AsPC-1 and PANC-1 cells [1] = experiment: Pancreatic cancer cell viability, alamar blue assay; type: cell-based; set-up: dose or concentration left out as unconfirmed; conditions: ESI-09 for 24 hours and 48 hours
Description: FIG. 11. Effects of ESI-09 treatment on pancreatic cancer cell viability. AsPC-1 and PANC-1 cells were treated with vehicle control (open bars) or with […] ESI-09 (filled bars) for 24 hours and 48 hours. Cell viability was measured by a fluorometric alamar blue assay. Bars represent mean±s.d. (n=3).

[2] = system: AsPC-1, BxPC-3, and PANC-1; experiment: Wound healing assay; type: cell-based; conditions: 10.0 μM; AsPC-1, BxPC-3, PANC-1
Description: Cells were grown to 95-100% confluency before a scratch wound was made. The medium was changed to RPMI 10% FBS containing 10.0 μM ESI-09. The cells were then incubated at 37° C. in 5% CO2. The wound was imaged at 0 hours and 22 hours after changing the medium. Healing rate was determined by calculating the percentage of wound closure normalized to a 1.0 mm wound according to the following equation: % wound closure=(distance between the edges of the wound before treatment with ES-09−distance between the edges of the wound 22 hours post treatment with ES-09)/1.0×100.

AsPC-1 and PANC-1 cells [3] = experiment: Cell adhesion assay on collagen I matrix; type: cell-based; conditions: pre-treatment 5 minutes, 10 μM 007-AM
Description: FIG. 13 ESI-09 inhibits EPAC1-mediated adhesion of PDA cells on collagen I. AsPC-1 and PANC-1 cells were stimulated with vehicle or 10 μM 007-AM after treatment with the indicated concentrations of ESI-09 for 5 minutes. Bars represent mean±s.d.
(§1) It has been recently reported that EPAC1 is over-expressed in pancreatic adenocarcinoma (Lorenz et al. (2008) Pancreas 37: 102-103). However, the functional role of EPAC1 elevation in this neoplasm is not clear. The inventors sought to employ ESI-09 to determine the role of EPAC1 signaling in pancreatic cancer. […] In order to determine if the observed impact on cell migration is EPAC1 specific, the effect of suppressing EPAC1 expression on AsPC-1 and PANC-1 migration using RNAi was examined. […] To further determine how ESI-09 inhibits PDA cell migration and invasion, a cell adhesion assay was performed using a collagen I matrix. […] To determine the in vivo anti-metastatic effect of ESI-09, MIA PaCa-2 stably expressing luciferase were orthotopically implanted into the pancreas of athymic nude mice. The mice were randomly divided into two groups and treated with vehicle or ESI-09 (50 mg/kg per day, oral gavage), respectively. The growth and metastasis of the tumors were monitored by weekly bioluminescence imaging using the IVIS bioluminescence imaging system.

MIA PaCa-2 = experiment: Orthotopic MIA PaCa-2 pancreatic cancer metastasis model; type: in vivo; conditions: athymic nude mice; 50 mg/kg per day, oral gavage; weekly bioluminescence imaging; 50 mg/kg/day
Description: FIG. 14. ESI-09 inhibits PDA metastasis in vivo. MIA PaCa-2 stably expressing luciferase was orthotopically implanted into the pancreas of athymic nude mice. The mice were randomly divided into two groups and treated with vehicle or ESI-09 (50 mg/kg, oral gavage), respectively. The growth and metastasis of the tumors were monitored by weekly bioluminescence imaging using the IVIS bioluminescence imaging system.
as §1, with “The mice were randomly divided into two groups and treated with vehicle or ESI-09 (50 mg/kg per day, oral gavage), respectively.” left out

R. australia [4] = experiment: Lethal-dose R. australia infection of mice; type: in vivo; conditions: WT C57BL/6 mice, 10 mg/kg, IP daily
Description: FIG. 21. ESI-09 treatment protects mice from lethal-dose infection of R. australia. WT C57BL/6 mice were treated with vehicle or ESI-09 (10 mg/kg, IP) daily. Five days after the treatment, mice were challenged with lethal dose of R. australia and continued ESI-09 daily treatment. Severity of illness and survival rate were monitored.
To test if EPAC inhibitors are capable of protecting mice from lethal-dose infection of R. australia. WT C57BL/6 mice were treated with vehicle or ESI-09 (10 mg/kg, IP) daily. Five days after the treatment, mice were challenged with lethal dose of R. australia and continued ESI-09 daily treatment.

R. australia [5] = experiment: R. australia infection of HUVEC cells, immunofluorescence; type: cell-based; conditions: 24 hours post infection
Description: FIG. 22. ESI-09 treatment suppresses cellular entry of R. australia. HUVEC cells treated with vehicle or ESI-09 were infected with R. australia. The levels of R. australia (Red) and EPAC1 (Green) were monitored with immunofluorescence staining 24 hours post infection.
To investigate the mechanism of EPAC1 inhibition-mediated protection of R. australia infection, HUVEC cells treated with vehicle or ESI-09 were infected with R. australia.

pSTAT3 Y705 = experiment: Leptin signaling in organotypic brain slice cultures, Western blotting; type: cell-based, mice; conditions: basal state and in response to leptin stimulation
Description: FIGS. 17A-17B. Pharmacological inhibition of EPAC reduces plasma leptin and enhances leptin signaling in hypothalamus (A) Western blotting of pSTAT3 Y705, total STAT3, SOCS3, SHP2 and α-tubulin in organotypic brain slices at hypothalamus level treated with leptin with or without EPAC specific inhibitor. (B) Plasma leptin levels of 8-week-old wild-type mice treated 3 weeks with vehicle or ESI-09 (50 mg/kg).
To explore the feasibility of increasing leptin sensitivity by targeting Epac1 using small molecules, organotypic brain slice cultures were prepared from 11-day old wild-type C57BL/6 mice. After 7 days ex vivo culture, treatment of the brain tissue with the Epac specific antagonist ESI-09 led to an enhanced pSTAT3 Y705 level both at the basal state and in response to leptin stimulation. […] These pharmacological data are in agreement with results obtained using Epac1 KO mice and further confirm that inhibition of Epac1 enhances leptin signaling in the hypothalamus. To further investigate the therapeutic potential of this small molecule, wild-type mice were with ESI-09 (50 mg/kg) or vehicle (corn oil) by oral gavage for 3 weeks.

[6] = In vivo pharmacokinetic study, blood time-concentration curve; conditions: single IP injection 10 mg/kg, mice
Description: FIG. 19. Mice blood time-concentration curve of ESI-09.
To determine the bioavailability of EPAC inhibitors, an IP injection formulation was developed in which the compounds were dissolved in ethanol and then diluted 1:10 with a 10% Tween 80 in normal saline solution. This formulation was determined suitable by passing the simulated in vivo blood dilution assay. In vivo pharmacokinetic studies were performed in four week old female C57BL6/N mice.

SMILES: CC(C)(C)c1cc(C(=O)C(C#N)=NNc2cccc(Cl)c2)no1 [ESI-09, 3-(5-Tert-Butyl-Isoxazol-3-Yl)-2-[(3-Chlorophenyl)-Hydrazono]-3-Oxo-Propionitrile]
- cAMP-induced type II PKA holoenzyme activation (type II PKA holoenzyme): did not significantly alter
- cell proliferation and viability (AsPC-1 and PANC-1 cells [1]): did not significantly affect
- cell migration, wound healing [2]: significant decrease; also recorded: significantly (P<0.05) decreased
- 007-AM induced cell adhesion (AsPC-1 and PANC-1 cells [3]): decreased 007-AM induced cell adhesion dose-dependently; also recorded: inhibits
- PDA metastasis (MIA PaCa-2): reduced; also recorded: inhibits
- protection of R. australia infection (R. australia [4]): striking protection; also recorded: protects
- treatment group showing sign of sickness (R. australia [4]): 10%
- number of intracellular R. australia (cellular entry) (R. australia [5]): dramatically reduced; also recorded: suppresses
- pSTAT3 Y705 level (pSTAT3 Y705): enhanced
- half-life ([6]; female, C57BL6/N, mouse, whole blood): 210 min
- blood levels, maximal values [6]: 42,520 ng/ml
- time of maximal blood level [6]: 0.5 h
